Assay results taken from patent US20260240836A1, “ENHANCER OF PHYSIOLOGICAL ACTIVITY OF HEPATOCYTE GROWTH FACTOR” (KYOWA HAKKO BIO CO., LTD., priority 2023, published 2026).

Legend:
[1] = biological target: T1, binding between HGF and c-Met (Homo sapiens, UniProt P14210); test: ELISA-like HGF-c-Met binding assay on plate with immobilized recombinant c-Met; details: NC set to 1
T1 construct: purchased R&D Systems
Method: The effect of the addition of glutathione trisulfide (GSSSG) or lipoic acid trisulfide (LA-SSS) on the binding (affinity) between HGF and c-Met was examined by the following method. GSSSG or LA-SSS was added to recombinant HGF (R&D Systems) at a molar ratio of 1:4000 (HGF:GSSSG or HGF:LA-SSS) (FIG. 1(A)) or 1:8000 (HGF:GSSSG or HGF:LA-SSS) (FIG. 1(B)). An ELISA-like HGF-c-Met binding assay was performed using a 96-well cluster plate with immobilized recombinant c-Met (R&D Systems) (Tatsumni et al. 2002; the principle of this method is schematically shown in FIG. 1(C)). Table 2 and FIGS. 1(A) and (B) show the relative values of each experimental group, with the A450-535 nm (absorbance at 450 nm minus absorbance at 535 nm) of the negative control (NC) set to 1.
In Table 2 and FIG. 1, NC: negative control (no addition), PC: positive control (HGF only addition), PC′: addition of solvent used to dissolve GSSSG and HGF, A′: addition of solvent used to dissolve GSSSG, GSSSG, and HGF (1 ng/ml), A: addition of solvent used to dissolve GSSSG and GSSSG, PC″: addition of solvent used to dissolve LA-SSS and HGF, B′: addition of solvent used to dissolve LA-SSS, LA-SSS, and HGF (1 ng/ml), B: addition of solvent used to dissolve LA-SSS and LA-SSS.

[2] = test system: muscle stem cells (satellite cells); test: Muscle stem cell (satellite cell) activation by HGF, BrdU pulse labeling; type: cell-based, rat; details: for Percentage of BrdU-positive cells (%): NC 46.9; for percentage of BrdU-positive cells / enhancing effect on muscle stem cell activation by HGF: HGF 3 ng/ml; for percentage of BrdU-positive cells: trisulfide at 4000 or 8000 moles per 1 mole HGF, vs. NC, p<0.05; for enhancing effect on muscle stem cell activation by HGF: trisulfide at 8000 moles per 1 mole HGF
Method: The effect of the addition of GSSSG or LA-SSS on the muscle stem cell activation effect of HGF (3 ng/ml) was examined by the following method. GSSSG or LA-SSS was added to recombinant HGF (R&D Systems) at a molar ratio of 1:4000 (HGF:GSSSG or HGF:LA-SSS) (FIG. 2(A)) or 1:8000 (HGF:GSSSG or HGF:LA-SSS) (FIG. 2(B)). The activation effect of HGF was measured using a culture system of muscle stem cells (satellite cells). Quiescent muscle stem cells were isolated from the skeletal muscle of 8-9-month-old mature rats in accordance with a modified method of Allen et al. (1997) (Tatsumi et al. 2006), and cultured for 24 hours in DMEM containing 10% normal horse serum (DMEM-10% HS, pH 7.2). HGF mixed with GSSSG or LA-SSS was added to a final concentration of 3 ng/ml, and after further culture for 24 hours, the activation rate of muscle stem cells was measured by the bromodeoxyuridine (BrdU) pulse labeling method. Cells that had incorporated BrdU were visualized with an anti-BrdU monoclonal antibody, and the percentage of positive cells was used as an indicator of muscle stem cell activation (Tatsumi et al. 1998).
In FIG. 2, NC: negative control (no addition), PC: positive control (HGF only addition), A′: addition of GSSSG and HGF (3 ng/ml), A: addition of GSSSG, B′: addition of LA-SSS and HGF (3 ng/ml), B: addition of LA-SSS.
The effect of the addition of GSSSG or LA-SSS on the muscle stem cell activation effect of HGF (1 ng/ml) was examined in the same manner as in Example 2, except that the final concentration of HGF was 1 ng/ml instead of 3 ng/ml.
In Table 3 and FIG. 4, NC: negative control (no addition), PC′: positive control (HGF (I ng/ml) only addition), A′: addition of GSSSG and HGF (I ng/ml), A: addition of GSSSG, B′: addition of LA-SSS and HGF (1 ng/ml), B: addition of LA-SSS, PC: positive control (HGF (3 ng/ml) only addition).

[3] = 1:4000 series, trisulfide and its solvent without HGF
[4] = 1:8000 series, trisulfide and its solvent without HGF
[5] = HGF:A,B molar ratio 1:4000 series, HGF 1 ng/mL present, PC′/PC″ = HGF plus solvent only
[6] = HGF:A,B molar ratio 1:8000 series, HGF 1 ng/mL present, PC′/PC″ = HGF plus solvent only
[7] = HGF 1 ng/ml present, trisulfide at 1:8000 molar ratio, PC′ = HGF 1 ng/ml only

T1 sequence (P14210 32-494 limits assumed): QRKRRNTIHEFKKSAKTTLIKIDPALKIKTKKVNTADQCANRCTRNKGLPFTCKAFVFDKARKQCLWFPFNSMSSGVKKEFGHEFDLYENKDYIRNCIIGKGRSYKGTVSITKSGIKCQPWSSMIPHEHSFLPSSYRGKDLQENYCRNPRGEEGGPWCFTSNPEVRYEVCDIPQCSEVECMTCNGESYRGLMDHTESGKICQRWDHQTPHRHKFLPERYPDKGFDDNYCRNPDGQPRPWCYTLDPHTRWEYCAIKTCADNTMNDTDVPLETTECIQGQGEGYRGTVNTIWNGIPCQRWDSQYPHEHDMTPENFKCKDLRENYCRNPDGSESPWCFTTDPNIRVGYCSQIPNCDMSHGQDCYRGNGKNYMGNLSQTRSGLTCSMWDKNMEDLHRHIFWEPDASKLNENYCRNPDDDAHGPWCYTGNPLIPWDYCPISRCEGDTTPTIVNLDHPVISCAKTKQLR

`O=C(O)CCCCC1CCSSS1` (stereo not drawn) [LA-SSS, lipoic acid trisulfide] was tested, and the “A450-535 um (Relative units) (Average value)” value (shortened to “A450-535 um (Relative units)”) [1, 3] was 1.28 Relative units, the “A450-535 um (Relative units)” value [1, 4] was 1.14 Relative units and the “A450-535 um (Relative units)” value [1, 5] was “increased”. The “A450-535 um (Relative units)” value ([1]; HGF:A,B molar ratio 1:4000 series, HGF 1 ng/mL present, PC′/PC″ = HGF plus solvent only, listed as B') was 9.55 Relative units, the “A450-535 um (Relative units)” value [1, 6] was “significantly increased” and the “A450-535 um (Relative units)” value ([1]; HGF:A,B molar ratio 1:8000 series, HGF 1 ng/mL present, PC′/PC″ = HGF plus solvent only, listed as B′) was 19.60 Relative units. The “Percentage of BrdU-positive cells (%)” value [2, 7] was “significantly increased”, the “Percentage of BrdU-positive cells (%)” value ([2]; HGF 1 ng/ml present, trisulfide at 1:8000 molar ratio, PC′ = HGF 1 ng/ml only, listed as B′) was 64.2% and the “percentage of BrdU-positive cells” value [2] was “significantly increased”. The “enhancing effect on muscle stem cell activation by HGF” value [2] was “not observed” and the “Percentage of BrdU-positive cells (%)” value ([2]; trisulfide alone, without HGF) was 48.8%.
In the case of `N[C@@H](CCC(=O)N[C@@H](CSSSC[C@H](NC(=O)CC[C@H](N)C(=O)O)C(=O)NCC(=O)O)C(=O)NCC(=O)O)C(=O)O` [GSSSG, glutathione trisulfide], the “A450-535 um (Relative units)” value [1, 3] is reported as 1.21 Relative units, the “A450-535 um (Relative units)” value [1, 4] is reported as 1.16 Relative units and the “A450-535 um (Relative units)” value [1, 5] is reported as “increased”. For the same molecule, the “A450-535 um (Relative units)” value ([1]; HGF:A,B molar ratio 1:4000 series, HGF 1 ng/mL present, PC′/PC″ = HGF plus solvent only, listed as A′) was 9.67 Relative units, the “A450-535 um (Relative units)” value [1, 6] was “significantly increased” and the “A450-535 um (Relative units)” value ([1]; HGF:A,B molar ratio 1:8000 series, HGF 1 ng/mL present, PC′/PC″ = HGF plus solvent only, listed as A′) was 11.22 Relative units. For the same molecule, the “Percentage of BrdU-positive cells (%)” value [2, 7] was “increased”, the “Percentage of BrdU-positive cells (%)” value ([2]; HGF 1 ng/ml present, trisulfide at 1:8000 molar ratio, PC′ = HGF 1 ng/ml only, listed as A′) was 57.5% and the “percentage of BrdU-positive cells” value [2] was “significantly increased”. The “enhancing effect on muscle stem cell activation by HGF” value [2] was “not observed” and the “Percentage of BrdU-positive cells (%)” value ([2]; trisulfide alone, without HGF) was 47.5%.
“HGF: recombinant hepatocyte growth factor (R&D Systems); positive control, alone or with trisulfide solvent” was tested, and the “A450-535 um (Relative units)” value ([1]; HGF:A,B molar ratio 1:4000 series, HGF 1 ng/mL present, PC′/PC″ = HGF plus solvent only, listed as PC′) was 9.39 Relative units, the “A450-535 um (Relative units)” value ([1]; HGF:A,B molar ratio 1:4000 series, HGF 1 ng/mL present, PC′/PC″ = HGF plus solvent only, listed as PC″) was 9.00 Relative units and the “A450-535 um (Relative units)” value ([1]; HGF:A,B molar ratio 1:8000 series, HGF 1 ng/mL present, PC′/PC″ = HGF plus solvent only, listed as PC′) was 10.21 Relative units. For the same molecule, the “A450-535 um (Relative units)” value ([1]; HGF:A,B molar ratio 1:8000 series, HGF 1 ng/mL present, PC′/PC″ = HGF plus solvent only, listed as PC″) was 10.04 Relative units, the “A450-535 um (Relative units)” value ([1]; positive control, HGF only addition) was 9.85 Relative units and the “Percentage of BrdU-positive cells (%)” value [2, 7] was “significantly increased”. For the same molecule, the “Percentage of BrdU-positive cells (%)” value ([2]; HGF 1 ng/ml present, trisulfide at 1:8000 molar ratio, PC′ = HGF 1 ng/ml only, listed as PC′) was 55.3% and the “Percentage of BrdU-positive cells (%)” value ([2]; HGF 3 ng/ml only addition) was 65.9%.
